Where two headings read alike, the source gives them in different places. Marks after values point to notes of the source that are not given here.
How the values were obtained:
[1] = test system: Pioneer 33K81 hybrid corn; test: Field study of isoxadifen with postemergence corn herbicides (Example 1), hybrid Pioneer 33K81; type: in vivo
Description: Timing of the application of the compounds was at the V6 growth stage (i.e., when there were six visible collars of the corn). Additionally, methylated seed oil (MSO)+28% ureas and ammonium sulfate (UAN) were applied at a concentration of 1% v/v+2.5% v/v.

[2] = test system: Pioneer 33P66 hybrid corn; conditions: applied at V6 growth stage at 1x field use rates, isoxadifen 37 g/ha where included
Method: The study was conducted in Bloomington, DeKalb and Urbana, Ill. to evaluate the crop response when isoxadifen was used with postemergence corn herbicides. Two hybrid corn species with different levels of tolerance were used in the study: Pioneer 33K81, a species sensitive to plant growth regulators (PGRs), isoxazole, amides and sulfonylureas (SUs); and Pioneer 33P66, a tolerant species. Plots were kept weed-free to eliminate any competition from weeds.
The following herbicides and their respective field use rates were used in the study:
rimsufuron—26 g/ha; nicosulfuron+rimsulfuron—39 g/ha; foramsulfuron—37 g/ha; diflufenzopyr+dicamba—294 g/ha; mesotrione—105 g/ha; and dicamba—560 g/ha. One or more of the herbicides were used with or without isoxadifen—37 g/ha. All herbicides were applied at the 1× labeled field use rates.
Timing of the application of the compounds was at the V6 growth stage (i.e., when there were six visible collars of the corn). Additionally, methylated seed oil (MSO)+28% […] (UAN) were applied at a concentration of 1% v/v+2.5% v/v.

[3] = test system: corn hybrids Pioneer 33K81 and Pioneer 33P66; test: Field study of isoxadifen with postemergence corn herbicides (Example 1), both hybrids or hybrid not stated; type: in vivo
[4] = test system: Golden Harvest hybrid corn; type: in vivo
Description: The hybrid corn species Golden Harvest was used in the study.
On one or more of the herbicides were used in combination with the insecticide chlorpyrifos—841 g/ha and with or without isoxadifen—37 g/ha.
A CO2 backpack sprayer was used to apply the compounds at 187 L/ha at 247 kPa.

[5] = herbicide in combination with chlorpyrifos 841 g/ha and isoxadifen 37 g/ha, seven days post application
[6] = herbicide in combination with chlorpyrifos 841 g/ha, without isoxadifen, seven days post application
[7] = herbicide in combination with chlorpyrifos, without isoxadifen
[8] = percentage of control, herbicide in combination with chlorpyrifos 841 g/ha and isoxadifen 37 g/ha
[9] = percentage of control, herbicide in combination with chlorpyrifos 841 g/ha, without isoxadifen

In the case of `COc1c(Cl)ccc(Cl)c1C(=O)O` [Dicamba, dicamba], the “PERCENTAGE OF CORN INJURY Pioneer 33K81” value ([1]; 7 days post application, applied at V6 growth stage at 1x field use rates, isoxadifen 37 g/ha where included) is reported as 25%, the “CORN YIELD - PERCENTAGE OF CONTROL Pioneer 33K81” value ([1]; percentage of control, applied at V6 growth stage at 1x field use rates, isoxadifen 37 g/ha where included) is reported as 81% and the “PERCENTAGE OF CORN INJURY Pioneer 33P66” value ([2]; 7 days post application) is reported as 36%. For the same molecule, the “CORN YIELD - PERCENTAGE OF CONTROL Pioneer 33P66” value ([2]; percentage of control) was 89%, the “crop injury when tank-mixed with isoxadifen, compared with the same herbicide without isoxadifen” value ([3]; both hybrids, 7 days after treatment) was “less crop injury” and the “CORN INJURY Chlor + Isoxadifen” value ([4]; in vivo) was 37 * %. The “CORN INJURY Chlorpyrifos” value ([4]; in vivo) was 65%, the “CORN YIELD Chlor + Isoxadifen” value ([4]; in vivo) was 86 * % and the “CORN YIELD Chlorpyrifos” value ([4]; in vivo) was 75%. For the same molecule, the “corn injury compared to the application of the same combination and isoxadifen” value (shortened to “corn injury compared to the application”) ([4]; in vivo) was “significantly more corn injury” and the “corn yield compared to the application of the same combination and isoxadifen” value (shortened to “corn yield compared to the application”) ([4]; in vivo) was “significantly smaller corn yield”.

For `COc1cc(OC)nc(NC(=O)NS(=O)(=O)c2cc(NC=O)ccc2C(=O)N(C)C)n1` [Foramsulfuron, foramsulfuron], the “CORN INJURY Chlor + Isoxadifen” value [4, 5] was 37 * %, the “CORN INJURY Chlorpyrifos” value [4, 6] was 47% and the “corn injury compared to the application” value [4, 7] was “significantly more corn injury”. The “corn yield compared to the application” value [4, 7] was “significantly smaller corn yield”, the “CORN YIELD Chlor + Isoxadifen” value [4, 8] was 92 * % and the “CORN YIELD Chlorpyrifos” value [4, 9] was 82%.

For `CS(=O)(=O)c1ccc(C(=O)C2C(=O)CCCC2=O)c([N+](=O)[O-])c1` [Mesotrione, mesotrione], the “difference in adding isoxadifen” value ([3]; hybrid not stated, data not shown) was “no significant difference”, the “CORN INJURY Chlor + Isoxadifen” value [4, 5] was 12 * % and the “CORN INJURY Chlorpyrifos” value [4, 6] was 34%. The “corn injury compared to the application” value [4, 7] was “significantly more corn injury”, the “corn yield compared to the application” value [4, 7] was “no significant difference” and the “CORN YIELD Chlor + Isoxadifen” value [4, 8] was 97%. The “CORN YIELD Chlorpyrifos” value [4, 9] was 97%.

In the case of `CCS(=O)(=O)c1cccnc1S(=O)(=O)NC(=O)Nc1nc(OC)cc(OC)n1` [Rimsulfuron, rimsulfuron], the “crop injury when tank-mixed with isoxadifen” value ([1]; P33K81 hybrid corn, addition of isoxadifen, data not shown) is reported as “less crop injury”, the “CORN INJURY Chlor + Isoxadifen” value [4, 5] is reported as 45% and the “CORN INJURY Chlorpyrifos” value [4, 6] is reported as 37%. For the same molecule, the “corn injury compared to the application” value [4, 7] was “no significant difference”, the “corn yield compared to the application” value [4, 7] was “significantly smaller corn yield” and the “CORN YIELD Chlor + Isoxadifen” value [4, 8] was 95 * %. The “CORN YIELD Chlorpyrifos” value [4, 9] was 65%.
